According to article PMC9573605, “Exploring Nitric Oxide (NO)-Releasing Celecoxib Derivatives as Modulators of Radioresponse in Pheochromocytoma Cells” (Molecules, 2022):

Key:
purified ovine COX-1 = molecular target: T1, purified ovine COX-1 (Ovis aries, UniProt P05979); assay: COX Fluorescent Inhibitor Screening Assay, COX-1; assay type: biochemical
T1 construct: purchased Cayman Chemical 700100
T1 sequence (P05979 25-600): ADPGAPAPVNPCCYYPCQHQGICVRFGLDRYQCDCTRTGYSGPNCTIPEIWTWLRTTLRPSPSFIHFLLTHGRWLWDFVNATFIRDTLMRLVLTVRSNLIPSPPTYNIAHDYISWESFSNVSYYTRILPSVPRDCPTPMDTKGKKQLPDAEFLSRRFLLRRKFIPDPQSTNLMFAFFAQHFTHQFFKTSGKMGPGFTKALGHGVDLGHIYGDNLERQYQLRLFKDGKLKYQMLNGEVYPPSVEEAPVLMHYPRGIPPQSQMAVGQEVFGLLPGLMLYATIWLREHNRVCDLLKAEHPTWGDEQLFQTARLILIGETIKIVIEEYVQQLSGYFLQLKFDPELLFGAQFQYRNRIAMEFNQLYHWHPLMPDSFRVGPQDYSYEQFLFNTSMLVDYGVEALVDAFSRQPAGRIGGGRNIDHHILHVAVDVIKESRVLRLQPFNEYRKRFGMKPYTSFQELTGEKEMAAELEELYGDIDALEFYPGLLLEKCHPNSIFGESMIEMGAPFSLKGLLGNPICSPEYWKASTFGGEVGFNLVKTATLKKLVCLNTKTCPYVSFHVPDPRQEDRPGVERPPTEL
Protocol: (§1) COX inhibition (Table 1) was evaluated in vitro using purified ovine COX-1 and recombinant human COX-2 enzyme in a commercially available “COX Fluorescent Inhibitor Screening Assay KIT” (item no. 700100, Cayman Chemical, Ann Arbor, MI, USA). Celecoxib served as a reference and inhibition data concerning 4a, 4e, 5a and 5e were previously reported by us and is herein discussed for comparison.
(§2) COX inhibition activity against ovine COX-1 and human COX-2 was determined using the fluorescence-based COX assay “COX Fluorescent Inhibitor Screening Assay Kit” (catalog number 700100; Cayman Chemical, Ann Arbor, MI, USA) according to the manufacturer’s instructions. Compounds 6a–d were screened at a concentration of 100 µM, all others were assayed in a concentration range of 0.1 nM to 100 μM in duplicate.

MPC-HIF2a spheroids = assay: Growth of non-irradiated tumor spheroids; assay type: cell-based, mouse; conditions: 10 µM compound, linear regression between 0 and 9 days
Protocol: As a first pilot study, growth responses of MPC-HIF2α spheroids were investigated after two different radiation treatments such as single-dose external beam irradiation (X-ray) and incubation with [^177Lu]LuCl3, respectively. NO-COXIBs were tested at 10 µM for additional effects on radiation treatments against a vehicle-treated control (w/o) and celecoxib (Ce).
4. Growth-rate of tumor spheroids in the presence of NO -COXIBS without radiation treatment
Compound Diameter growth rate
Table S2. Effects of NO-COXIBs on spheroid growth; diameter growth rates of non-irradiated MPC-HIF2a spheroids in presence of 10 µM of compounds determined from linear regression between 0 and 9 days after treatment start; (w/o) vehicle control treated with DMSO

[1] = Fluorometric NO release assay (Griess assay); assay type: physicochemical; conditions: 24 h, 37 °C, relative to initial molar amount of compound; for thiol-dependent NO release: 2.5 mM cysteine; for spontaneous NO release: absence of cysteine
Protocol: The nitric oxide releasing properties of the nitroester-derivatives 5a–d, 5f, and 6a–d were evaluated using a fluorometric Griess assay in the presence and absence of cysteine to determine thiol-dependent and spontaneous release of nitric oxide (Figure 3).
Nitric oxide release of compounds within 24 h at 37 °C was measured using the fluorometric nitric oxide microplate assay kit ab65327 (Abcam, Cambridge, UK). For measurement of spontaneous release, 1.8 nmol of compounds were incubated in 75 µL Dulbecco’s PBS containing 0.05% v/v residual DMSO and 2.5 mM DTPA (pH = 7.1) for 24 h at 37 °C. Thiol-dependent release was measured accordingly in presence of 2.5 mM cysteine. Two series of nitrate standards were prepared (0.2−1 nmol) in 75 µL incubation buffer, in presence or absence of cysteine, respectively. According to the manufacturer’s instructions, all nitrate content in samples and standards was enzymatically converted into nitrite through incubation with nitrate reductase for 2 h at room temperature, and the resulting nitrite content (total nitric oxide) was determined through reaction with 2,3-diaminonaphthalene followed by measurement of fluorescence intensity at λex/em = 360/450 nm using a microplate reader. Nitrite content in samples was calculated from linear regression of standards and expressed as relative nitric oxide release (%) normalized to the initial molar amount of compound. NONOate served as positive control.
Figure 3 Spontaneous and thiol-dependent NO^• release from NO-COXIBs; measured using fluorometric Griess assay (n = 2); relative release indicates the percentage of soluble nitrogen species (nitrate + nitrite) detected in the incubation buffer after 24 h compared to the initial molar amount of compounds; NO^• release of NONOate (positive control) exceeded the maximum detection limit; data presented as mean ± range.

recombinant human COX-2 = molecular target: T2, recombinant human COX-2 (Homo sapiens, UniProt P35354); assay: COX Fluorescent Inhibitor Screening Assay, COX-2; assay type: biochemical; conditions: for IC50: human COX-2; for SI: COX-1 vs COX-2 selectivity index
T2 construct: purchased Cayman Chemical 700100
T2 sequence (P35354 18-604): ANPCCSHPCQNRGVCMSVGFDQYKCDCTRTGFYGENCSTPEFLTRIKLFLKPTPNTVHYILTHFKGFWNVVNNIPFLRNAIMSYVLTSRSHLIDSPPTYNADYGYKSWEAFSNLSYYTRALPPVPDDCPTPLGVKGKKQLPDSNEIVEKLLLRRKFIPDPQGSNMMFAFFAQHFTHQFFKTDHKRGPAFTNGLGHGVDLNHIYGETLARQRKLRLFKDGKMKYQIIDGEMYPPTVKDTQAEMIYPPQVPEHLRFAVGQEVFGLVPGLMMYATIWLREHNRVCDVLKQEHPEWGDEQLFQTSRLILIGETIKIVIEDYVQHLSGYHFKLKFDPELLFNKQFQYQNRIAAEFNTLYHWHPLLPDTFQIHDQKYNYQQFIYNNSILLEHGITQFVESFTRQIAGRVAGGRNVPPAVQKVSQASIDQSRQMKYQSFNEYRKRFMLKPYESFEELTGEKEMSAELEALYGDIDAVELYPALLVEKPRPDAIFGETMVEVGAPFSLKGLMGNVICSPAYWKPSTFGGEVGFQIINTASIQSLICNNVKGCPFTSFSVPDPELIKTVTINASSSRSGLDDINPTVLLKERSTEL
Protocol: as §1, §2

[2] = screened at a concentration of 100 µM

Row | IC50 (purified ovine COX-1; [2]) | thiol-dependent NO release [1] | spontaneous NO release [1] | IC50 (recombinant human COX-2; [2]) | IC50 (purified ovine COX-1; 0.1 nM to 100 µM in duplicate) | SI (recombinant human COX-2) | IC50 (recombinant human COX-2; 0.1 nM to 100 µM in duplicate) | SMILES | Diameter growth rate ± SEM (MPC-HIF2a spheroids)
1 | > 100 µM | 40% | 26% | > 100 µM |  |  |  | CCC(=O)NS(=O)(=O)c1ccc(-n2nc(CO[N+](=O)[O-])cc2-c2ccc(C)cc2)cc1 [6c, {1-[4-(N-Propionylsulfamoyl)phenyl]-5-(p-tolyl)-1H-pyrazol-3-yl}methyl nitrate] | 60.0 ± 5.5 µm/day
2 | > 100 µM | 29–53% | 10–22% | > 100 µM |  |  |  | CCC(=O)NS(=O)(=O)c1ccc(-n2nc(CO[N+](=O)[O-])c(Cl)c2-c2ccc(C)cc2)cc1 [6a, {4-Chloro-1-[4-(N-propionylsulfamoyl)phenyl]-5-(p-tolyl)-1H-pyrazol-3-yl}methyl nitrate] | 64.1 ± 6.1 µm/day
3 | > 100 µM | 65% | 40% | > 100 µM |  |  |  | CCC(=O)NS(=O)(=O)c1ccc(-n2nc(CO[N+](=O)[O-])cc2-c2ccc(OC)cc2)cc1 [6d, {5-(4-Methoxyphenyl)-1-[4-(N-propionylsulfamoyl)phenyl]-1H-pyrazol-3-yl}methyl nitrate] | 63.7 ± 5.9 µm/day
4 |  | 29–53% | 10–22% |  | > 100 µM | >92 | 1.08 µM | COc1ccc(-c2c(Cl)c(CO[N+](=O)[O-])nn2-c2ccc(S(C)(=O)=O)cc2)cc1 [5d, {4-Chloro-5-(4-methoxyphenyl)-1-[4-(methylsulfonyl)phenyl]-1H-pyrazol-3-yl}methyl nitrate] | 61.2 ± 5.5 µm/day
5 |  | 29–53% | 10–22% |  | > 100 µM | >84 | 1.18 µM | COc1ccc(-c2cc(CO[N+](=O)[O-])nn2-c2ccc(S(N)(=O)=O)cc2)cc1 [5f, [5-(4-Methoxyphenyl)-1-(4-sulfamoylphenyl)-1H-pyrazol-3-yl]methyl nitrate] | 61.4 ± 5.2 µm/day
6 |  | 17% | no detectable |  | > 100 µM | >47 | 2.12 µM | Cc1ccc(-c2c(Cl)c(CO[N+](=O)[O-])nn2-c2ccc(S(C)(=O)=O)cc2)cc1 [5c, {4-Chloro-1-[4-(methylsulfonyl)phenyl]-5-(p-tolyl)-1H-pyrazol-3-yl}methyl nitrate] | 60.4 ± 5.3 µm/day
7 | ~100 µM | 56% | no detectable | > 100 µM |  |  |  | CCC(=O)NS(=O)(=O)c1ccc(-n2nc(CO[N+](=O)[O-])c(Cl)c2-c2ccc(OC)cc2)cc1 [6b, {4-Chloro-5-(4-methoxyphenyl)-1-[4-(N-propionylsulfamoyl)phenyl]-1H-pyrazol-3-yl}methyl nitrate] | 63.1 ± 5.3 µm/day
